Source: patent publication US8309558B2, “Compounds for the treatment of hepatitis C” (Bristol-Myers Squibb Company, priority 2008, dated 2012)

What was measured:
[1] = biological target: T1, HCV NS5B RdRp genotype 1b (Hepatitis C virus genotype 1b, UniProt Q9WMX2); experiment: Standard HCV NS5B RdRp enzyme assay; type: biochemical; conditions: Table 1b; HCV NS5B RdRp genotype 1b; read-out: IC50
T1 construct: The protein was expressed with an 18 amino acid C-terminal truncation to enhance the solubility; made in house; host or cells: E. coli BL21(DE3), pET21a vector
Procedure, shortened: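 Radiometric SPA measuring 3H-UMP incorporation on polyA/biotin-oligo-dT12 (6 nM/180 nM), 0.29 μM total UTP. Enzyme: NS5B 1b lacking last 18 residues, 28 nM final, 30° C for 60 min in 20 mM Hepes pH 7.5, 2.5 mM MgCl2, 2% DMSO. IC50 from seven-point curves.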

HCV replicon cells = experiment: HCV replicon FRET / luciferase assay (96-well plates); type: cell-based; conditions: Hepatitis C virus, Table 1b; HCV replicon; read-out: EC50
Procedure, shortened: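 Percent activity is background-subtracted signal relative to untreated cell wells, with background taken from maximal protease-inhibitor wells. Cytotoxicity is Alamar blue fluorescence relative to controls. Replicon inhibition was read by NS3 FRET peptide cleavage (340/490 nm) or luciferase.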

T1 sequence (Q9WMX2 2420-2992): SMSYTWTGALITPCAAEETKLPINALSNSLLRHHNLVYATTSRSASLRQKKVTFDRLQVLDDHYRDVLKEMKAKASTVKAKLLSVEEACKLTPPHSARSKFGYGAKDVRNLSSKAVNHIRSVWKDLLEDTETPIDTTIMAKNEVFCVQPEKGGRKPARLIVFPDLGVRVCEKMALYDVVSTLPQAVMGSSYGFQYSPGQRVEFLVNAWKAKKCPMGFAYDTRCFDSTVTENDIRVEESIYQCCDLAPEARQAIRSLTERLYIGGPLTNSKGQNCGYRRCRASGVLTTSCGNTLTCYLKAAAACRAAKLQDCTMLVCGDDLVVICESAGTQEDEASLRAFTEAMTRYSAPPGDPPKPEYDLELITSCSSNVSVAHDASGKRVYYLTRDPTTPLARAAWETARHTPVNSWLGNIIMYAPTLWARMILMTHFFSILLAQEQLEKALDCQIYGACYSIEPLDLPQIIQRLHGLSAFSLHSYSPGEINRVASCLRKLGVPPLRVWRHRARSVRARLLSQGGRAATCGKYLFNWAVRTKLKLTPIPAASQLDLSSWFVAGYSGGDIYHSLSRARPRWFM

| SMILES | IC50 [1] | EC50 (HCV replicon cells) |
| --- | --- | --- |
| CNC(=O)c1c(-c2ccc(F)cc2)oc2cc(NS(C)(=O)=O)c(-c3cc(C(=O)NC4(c5ccccc5)CC4)ccc3C)cc12 | < 0.25 µM | < 0.25 µM |
| CNC(=O)c1c(-c2ccc(F)cc2)oc2ccc(-c3cc(C(=O)NC4(c5nnn[nH]5)CC4)ccc3C)cc12 | < 0.25 µM | 1 to 10 µM |
| CNC(=O)c1c(-c2ccc(F)cc2)oc2ccc(-c3cc(C(=O)NC4(c5ccccc5)CC4)ccc3O)cc12 | < 0.25 µM | < 0.25 µM |
| CNC(=O)c1c(-c2ccc(F)cc2)oc2ccc(-c3ccc(O)c(C(=O)NCC(C)C)c3)cc12 | 1 to 10 µM | > 10 µM |
| CNC(=O)c1c(-c2ccc(F)cc2)oc2cc(N(CCO)S(C)(=O)=O)c(-c3cccc(C(=O)NC(C)(C)c4nc(C)no4)c3)cc12 | < 0.25 µM | < 0.25 µM |
| CNC(=O)c1c(-c2ccc(F)cc2)oc2cc(N(CCO)S(C)(=O)=O)c(-c3cc(C(=O)NC4(c5ccccc5)CC4)ccc3C)cc12 | < 0.25 µM | < 0.25 µM |
| CNC(=O)c1c(-c2ccc(F)cc2)oc2ccc(-c3cc(C(=O)NCC(C)C)ccc3OCC3CCNC3)cc12 (stereo not drawn) | < 0.25 µM | < 0.25 µM |
| CNC(=O)c1c(-c2ccc(F)cc2)oc2ccc(-c3cc(C(=O)NCC(C)C)ccc3OCC3CCCNC3)cc12 (stereo not drawn) | < 0.25 µM | < 0.25 µM |
| CNC(=O)c1c(-c2ccc(F)cc2)oc2ccc(-c3cc(C(=O)NC4(c5ccccn5)CC4)c(OC)cc3Cl)cc12 | < 0.25 µM | < 0.25 µM |
| CNC(=O)c1c(-c2ccc(F)cc2)oc2ccc(-c3cc(C(=O)NCC(C)C)ccc3OCCC(N)=O)cc12 | > 10 µM | > 10 µM |
| CNC(=O)c1c(-c2ccc(F)cc2)oc2ccc(-c3cc(C(=O)NCC(C)C)ccc3OCCCN)cc12 | < 0.25 µM | < 0.25 µM |
| CNC(=O)c1c(-c2ccc(F)cc2)oc2ccc(-c3cc(C(=O)NC4(c5ccc(F)cc5)CC4)ccc3C)cc12 | < 0.25 µM | < 0.25 µM |
| CNC(=O)c1c(-c2ccc(F)cc2)oc2ccc(-c3cc(C(=O)NCC(C)C)ccc3OC3CCC(N)C3)cc12 (stereo not drawn) | < 0.25 µM | < 0.25 µM |
| CNC(=O)c1ccc(-c2ccc(-c3ccc4oc(-c5ccc(F)cc5)c(C(=O)NC)c4c3)cc2C(=O)NCC(C)C)cn1 | > 10 µM | > 10 µM |
| CNC(=O)c1c(-c2ccc(F)cc2)oc2ccc(-c3cc(C(=O)NCC(C)C)ccc3OCCNC(N)=O)cc12 | < 0.25 µM | < 0.25 µM |
| CNC(=O)c1c(-c2ccc(F)cc2)oc2ccc(-c3ccc(-c4ccc(C(N)=O)cc4)c(C(=O)NCC(C)C)c3)cc12 | < 0.25 µM | > 10 µM |
| CNC(=O)c1c(-c2ccc(F)cc2)oc2ccc(-c3ccc(-c4cncc(C#N)c4)c(C(=O)NCC(C)C)c3)cc12 | < 0.25 µM | 0.25 to 1 µM |
| CNC(=O)c1c(-c2ccc(F)cc2)oc2ccc(-c3cc(C(=O)NC4(c5nnc(C6CC6)[nH]5)CC4)ccc3C)cc12 | < 0.25 µM | < 0.25 µM |
| CNC(=O)c1c(-c2ccccc2)oc2ccc(-c3cc(C(=O)NC4(c5nnc(-c6ccccc6)[nH]5)CC4)ccc3C)cc12 | < 0.25 µM | < 0.25 µM |
| CNC(=O)c1c(-c2ccc(F)cc2)oc2ccc(-c3cc(C(=O)NC4(c5ccccn5)CC4)c(OC)cc3C)cc12 | < 0.25 µM | < 0.25 µM |
| CNC(=O)c1c(-c2ccc(F)cc2)oc2ccc(-c3cc(C(=O)NC4(c5ccccn5)CC4)c(F)cc3Cl)cc12 | < 0.25 µM | < 0.25 µM |
| CNC(=O)c1c(-c2ccc(F)cc2)oc2ccc(-c3cncc(C(=O)NC(C)(C)C)c3)cc12 | < 0.25 µM | < 0.25 µM |
| CNC(=O)c1c(-c2ccc(F)cc2)oc2ccc(-c3cc(OC(C)C)cc(C(=O)NCC(C)C)c3)cc12 | 1 to 10 µM | > 10 µM |
| CNC(=O)c1c(-c2ccc(F)cc2)oc2ccc(-c3cc(C(=O)NCC(C)C)ccc3OC(F)(F)F)cc12 | 0.25 to 1 µM | > 10 µM |
| CNC(=O)c1c(-c2ccc(F)cc2)oc2ccc(-c3cc(C(=O)NC4(c5ccccn5)CC4)c(F)cc3O)cc12 | < 0.25 µM | 0.25 to 1 µM |
| CNC(=O)c1c(-c2ccccc2)oc2ccc(-c3cc(C(=O)NC4(c5nc(-c6ccccn6)no5)CC4)ccc3C)cc12 | < 0.25 µM | < 0.25 µM |
| CNC(=O)c1c(-c2ccc(F)cc2)oc2ccc(-c3cc(C(=O)NC4(c5ccccc5)CC4)ccc3OC(F)(F)F)cc12 | 0.25 to 1 µM | < 0.25 µM |
| CNC(=O)c1c(-c2ccc(F)cc2)oc2ccc(-c3cc(C(=O)NC4(c5ccccn5)CC4)ccc3OC(F)(F)F)cc12 | 0.25 to 1 µM | < 0.25 µM |
| CNC(=O)c1c(-c2ccc(F)cc2)oc2ccc(-c3cc(C(=O)NC4(c5nc(C)no5)CC4)c(OC)cc3Cl)cc12 | < 0.25 µM | < 0.25 µM |
| CNC(=O)c1c(-c2ccc(F)cc2)oc2ccc(-c3cc(C(=O)NC4(c5ccccn5)CC4)c(F)cc3C)cc12 | < 0.25 µM | < 0.25 µM |
